Measured values published in patent US20240263147A1, “CARDIAC ORGANOID AND ANTI-ELECTRO-MITOCHONDRIAL DESYNCHRONIZATION THERAPY” (YISSUM RESEARCH DEVELOPMENT COMPANY OF THE HEBREW …, priority 2021, published 2024).
Entries after “also recorded” stand apart in the source; their conditions may differ.

How the values were obtained:
[1] = known cardiac side effects of therapeutic agents; cited from earlier work
[2] = system: vascularized cardiac organoids; test: Integrated metabolic-electro-mechanical sensor chip: simultaneous contraction, field potential and interstitial oxygen; type: cell-based, human
Method: The MEA design and printed connections enabled access to 45 different electrodes inside the platform intermittently via a compatible sensor circuit (FIGS. 9A-9B). Spontaneous cardiac field potentials (FPs) were recorded from cardiac organoids using an integrated signal conditioning circuit (AD8232®), with a 2-pole adjustable high-pass filter, 3-pole adjustable low-pass filter, adjustable gain, and medical instrumentation amplifiers to extract, amplify, and filter the extracellular field potential of the organoids remotely within the confined well. […] Spontaneous cardiac field potentials were measured at 100 Hz sampling rate in each microwell. Field potential rhythm frequency was calculated in real-time using a custom-made MATLAB® software imposing Fourier Transformation (FFT) on the evolving kinetic data (FIGS. 9C-9D).
Real-time oxygen measurement was performed based on previously described elements. Briefly, phosphorescent ruthenium microprobes (CPOx-50-RuP) show a decrease in phosphorescence decay time as a function of oxygen concentration, allowing to measure the oxygen content. Controlled sinusoidal modulated 532-nm LED signal excites the embedded oxygen sensors and emits a sinusoidal amplitude-modulated light at 605 nm that is shifted in phase due to oxygen quenching. A phase shift is measured between the emission hardware-filtered first detector (PMT), and a second excitation detector (cPMT). […] Measurements were carried out at a 10 Hz sampling rate. Contraction rate and oxygen rhythm frequency were calculated in real-time using a custom-made MATLAB® software imposing Fourier Transformation (FFT) on the evolving kinetic data. Using custom MATLAB code, we calculated the cardiac organoid contraction rates directly from our oxygen reader based on the emission intensity measured in peak-to-peak voltage from the oxygen bead and its displacement using the second PMT system. Cardiac displacement was measured by the embedded oxygen beads inside the cardiac organoids during a contraction. When the beads move at different distances from the focal point, changes in peak-to-peak voltage occurred leading to the detection of the contraction behavior.
For simultaneous real-time oxygen, contraction rate, and field potential measurements, cardiac organoids were cultured in RPMI supplemented with B27 minus insulin, 5 ng/ml VEGF and 0.1% DMSO (control) or 10 μM KB-R7943 mesylate. Real-time oxygen, contraction rate, and field potential were measured after 0, 15, and 25 minutes of exposure to DMSO (control) or 10 μM KB-R7943 mesylate.

[3] = system: vascularized cardiac organoids; test: as above; type: cell-based, human; conditions: 10 μM Blebbistatin

Molecule	Side effect (cardiac) [1]	other results
CS(=O)(=O)c1ccc(C2=C(c3ccccc3)C(=O)OC2)cc1 [Rofecoxib]	myocardial infarction	–
CCCN1C[C@H](CSC)C[C@@H]2c3cccc4[nH]cc(c34)C[C@H]21 [Pergolide]	valvular heart disease	–
Cc1nc(Nc2ncc(C(=O)Nc3c(C)cccc3Cl)s2)cc(N2CCN(CCO)CC2)n1 [Dasatinib]	heart failure	–
COc1ccc2cc([C@H](C)C(=O)O)ccc2c1 [Naproxen]	myocardial infarction	–
CCN[C@@H](C)Cc1cccc(C(F)(F)F)c1 [Dexfenfluramine]	valvular heart disease	–
COC(=O)[C@H]1[C@@H](OC(=O)c2ccccc2)C[C@@H]2CC[C@H]1N2C [Cocaine]	left ventricular hypertrophy, arrhythmias	–
CN1C[C@H](C(=O)N[C@]2(C)O[C@@]3(O)[C@@H]4CCCN4C(=O)[C@H](Cc4ccccc4)N3C2=O)C=C2c3cccc4[nH]cc(c34)C[C@H]21 [Ergotamine]	valvular heart disease	–
CCNC(C)Cc1cccc(C(F)(F)F)c1 (stereo not drawn) [Fenfluramine]	valvular heart disease	–
CCCCN1CCCCC1C(=O)Nc1c(C)cccc1C (stereo not drawn) [Bupivacaine]	ventricular arrhythmias, myocardial depression	–
CC(C)(N)Cc1ccccc1 [Phentermine]	valvular heart disease	–
O=C1Cc2cc(CCN3CCN(c4nsc5ccccc45)CC3)c(Cl)cc2N1 [Ziprasidone]	QT prolongation, TdP, sudden cardiac death	–
CC(C)C[C@H](NC(=O)[C@H](Cc1ccccc1)NC(=O)c1cnccn1)B(O)O [Bortezomib]	heart failure, arrhythmia	–
CCN(CC)CCNC(=O)c1c(C)[nH]c(/C=C2\C(=O)Nc3ccc(F)cc32)c1C [Sunitinib]	long QT, left ejection fraction, myocardial infarction	–
Arsenic trioxide	QT prolongation, tachycardia	–
Cc1cn([C@H]2C[C@H](N=[N+]=[N-])[C@@H](CO)O2)c(=O)[nH]c1=O [Azidothymidine]	dilated cardiomyopathy	–
NC1=N[C@H](O)[C@H]2[C@H]3O[C@]4(O)O[C@@H]([C@@H](O)[C@@]2(N1)[C@@H]4O)[C@]3(O)CO [Tetrodotoxin]	–	effect on field potential generation, mechanical contraction (and oxygen oscillation) [2]: complete loss of field potential generation and associated mechanical contraction; also recorded: eliminated field potential generation, mechanical contraction, and oxygen oscillation; effect on oxygen oscillation [2]: decayed simultaneously with the field potential
Cn1c(=O)cc(N2CCC[C@@H](N)C2)n(Cc2ccccc2C#N)c1=O [Alogliptin]	heart failure	–
CC(C)(N)Cc1ccc(Cl)cc1 [Chlorphentermine]	pulmonary heart disease	–
COc1cccc2c1C(=O)c1c(O)c3c(c(O)c1C2=O)C[C@@](O)(C(=O)CO)C[C@@H]3O[C@H]1C[C@H](N)[C@H](O)[C@H](C)O1 [Doxorubicin]	arrhythmias, heart failure	–
CC[C@@H](CO)NC(=O)[C@@H]1C=C2c3cccc4c3c(cn4C)C[C@H]2N(C)C1 [Methysergide]	valvular heart disease	–
COCC(=O)O[C@]1(CCN(C)CCCc2nc3ccccc3[nH]2)CCc2cc(F)ccc2[C@@H]1C(C)C [Mibefradil]	QT prolongation	–
CC(C)OC(=O)[C@H](C)N[P@](=O)(OC[C@H]1O[C@@H](n2ccc(=O)[nH]c2=O)[C@](C)(F)[C@@H]1O)Oc1ccccc1 [Sofobuvir]	Bradycardia	–
COc1ccc(C(=O)Nc2ccccc2CCC2CCCCN2C)cc1 (stereo not drawn) [Encainide]	QT prolongation, TdP	–
Ipilimumab	lethal myocarditis	–
N.N.[Cl][Pt][Cl] [Cisplatin]	arrhythmias, myocardial ischemia, heart failure	–

Molecule	Side effect (cardiac) [1]	other results
COc1ccc(CCN2CCC(Nc3nc4ccccc4n3Cc3ccc(F)cc3)CC2)cc1 [Astemizole]	long QT syndrome, TdP	–
COc1cc(N)c(Cl)cc1C(=O)NC1CCN(CCCOc2ccc(F)cc2)CC1OC (stereo not drawn) [Cispapride]	ventricular arrhythmia, QT prolongation, TdP, cardiac arrest	–
Nivolumab	lethal myocarditis	–
CC(CN(C)C)C(C)(O)Cc1ccc(Cl)cc1 (stereo not drawn) [Clobutinol]	QT prolongation	–
C[C@@H]1CN(c2c(F)c(N)c3c(=O)c(C(=O)O)cn(C4CC4)c3c2F)C[C@H](C)N1 [Sparfloxacin]	QT prolongation	–
COc1ccc(C(CN(C)C)C2(O)CCCCC2)cc1 (stereo not drawn) [Venlafaxine]	QT prolongation, arrhythmias	–
CC(=O)[C@]1(O)Cc2c(O)c3c(c(O)c2[C@@H](O[C@H]2C[C@H](N)[C@H](O)[C@H](C)O2)C1)C(=O)c1ccccc1C3=O [Idarubicin]	arrhythmias, heart failure	–
CCN(CC)CC(=O)Nc1c(C)cccc1C [Lidocaine]	bradycardia, cardiac arrest	–
CS(=O)(=O)CCNCc1ccc(-c2ccc3ncnc(Nc4ccc(OCc5cccc(F)c5)c(Cl)c4)c3c2)o1 [Lapatinib]	left ventricular ejection fraction, congestive heart failure	–
COc1cc(OC)c(C(=O)CCCN2CCCC2)c(OC)c1 [Buflomedil]	QT prolongation, cardiac arrest	–
CC(=O)O[C@@]12CO[C@@H]1C[C@H](O)[C@@]1(C)C(=O)[C@H](O)C3=C(C)[C@@H](OC(=O)[C@H](O)[C@@H](NC(=O)OC(C)(C)C)c4ccccc4)C[C@@](O)([C@@H](OC(=O)c4ccccc4)[C@H]21)C3(C)C [Docetaxel]	bradycardia, myocardial ischemia, heart failure	–
CCCCCNC(=N)N/N=C/c1c[nH]c2ccc(OC)cc12 [Tegaserod]	Ischemia	–
Cc1ccc(-c2ncc(Cl)cc2-c2ccc(S(C)(=O)=O)cc2)cn1 [Etoricoxib]	thrombotic events	–
N=C(N)c1ccc(OCCCCCOc2ccc(C(=N)N)cc2)cc1 [Pentamidine]	QT prolongation, arrhythmias	–
CNC(=O)c1cc(Oc2ccc(NC(=O)Nc3ccc(Cl)c(C(F)(F)F)c3)cc2)ccn1 [Sorafenib]	heart failure, myocardial ischemia, QT prolongation	–
COc1cccc2c1C(=O)c1c(O)c3c(c(O)c1C2=O)C[C@@](O)(C(C)=O)C[C@@H]3O[C@H]1C[C@H](N)[C@H](O)[C@H](C)O1 [Daunorubicin]	arrhythmias, heart failure	–
CC[C@H]1OC(=O)[C@H](C)[C@@H](O[C@H]2C[C@@](C)(OC)[C@@H](O)[C@H](C)O2)[C@H](C)[C@@H](O[C@@H]2O[C@H](C)C[C@H](N(C)C)[C@H]2O)[C@](C)(OC)C[C@@H](C)C(=O)[C@H](C)[C@@H](O)[C@]1(C)O [Clarithromycin]	QT prolongation, myocardial infarction, arrhythmias, cardiac death	–
CN(CCOc1ccc(CC2SC(=O)NC2=O)cc1)c1ccccn1 (stereo not drawn) [Rosiglitazone]	heart failure	–
O=c1[nH]cc(F)c(=O)[nH]1 [5-fluorouracil]	arrhythmias, myocardial ischemia, heart failure	–
Cc1ccc2c(c1)C(=O)C1(O)CCN(c3ccccc3)C1=N2 (stereo not drawn) [Blebbistatin]	–	effect on contraction [3]: inhibits the contraction; also recorded: blocked cardiac contraction; effect on field potential and interstitial oxygen oscillation frequency and intensity [3]: does not affect the FPs or interstitial oxygen oscillations frequency and intensity; also recorded: did not affect the field potential or the oxygen oscillation frequency and intensity
COc1cc2c(Nc3ccc(Br)cc3F)ncnc2cc1OCC1CCN(C)CC1 [Vandetanib]	long QT	–
O=C1NCCN1CCN1CCC(c2cn(-c3ccc(F)cc3)c3ccc(Cl)cc23)CC1 [Sertindole]	QT prolongation, TdP, sudden cardiac death	–
CC(CC(c1ccccc1)c1ccccc1)NC(C)(C)C (stereo not drawn) [Terodiline]	ventricular tachycardia, cardiac death	–
COc1ccc2[nH]c([S+]([O-])Cc3ncc(C)c(OC)c3C)nc2c1 (stereo not drawn) [Omeprazole]	acute myocardial infarction, heart failure	–
